FC(F)(F)c1cccnc1Cl
solubility (mole fraction)
Settings | 273.15 K | 278.15 K | 283.15 K | 288.15 K | 293.15 K | 298.15 K | 303.15 K
in dichloromethane | 0.281 | 0.365 | 0.41 | 0.469 | 0.551 | 0.625 | 0.741
in ethanol | 0.137 | 0.182 | 0.253 | 0.355 | 0.475 | 0.635 | 0.875
in n-heptane | 0.037 | 0.0552 | 0.0887 | 0.14 | 0.222 | 0.36 | 0.556
in n-hexane | 0.046 | 0.0733 | 0.118 | 0.199 | 0.336 | 0.488 | 0.762
in n-propanol | 0.0727 | 0.0992 | 0.132 | 0.183 | 0.253 | 0.355 | 0.492
in toluene | 0.35 | 0.413 | 0.491 | 0.569 | 0.653 | 0.724 | 0.862

Source: BigSolDB 2.1
